Data from PubChem BioAssay (NCI).
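Step 1: Grow cells in 96-well plates. Step 2: Expose to compound for 48 hours at 5 concentrations. Step 3: Interpolate endpoints linearly; if unreached, use highest concentration. GI50 is the concentration that inhibits growth by half. TGI denotes the concentration required for complete inhibition of growth.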

Key:
Assay in all cases: NCI-60 cell line screen, 48 h
HL-60(TB) leukemia = test system: HL-60(TB) leukemia
NCI-H226 lung = test system: NCI-H226 lung
NCI-H23 lung = test system: NCI-H23 lung
NCI-H460 lung = test system: NCI-H460 lung
RPMI-8226 leukemia = test system: RPMI-8226 leukemia
SF-295 CNS = test system: SF-295 CNS
SN12C renal = test system: SN12C renal
TK-10 renal = test system: TK-10 renal
DU-145 prostate = test system: DU-145 prostate
MDA-MB-231 breast = test system: MDA-MB-231 breast

Row | Compound | TGI (HL-60(TB) leukemia) [µM] | TGI (NCI-H226 lung) [µM] | TGI (NCI-H23 lung) [µM] | TGI (NCI-H460 lung) [µM] | TGI (RPMI-8226 leukemia) [µM] | TGI (SF-295 CNS) [µM] | TGI (SN12C renal) [µM] | TGI (TK-10 renal) [µM] | GI50 (DU-145 prostate) [µM] | TGI (DU-145 prostate) [µM] | GI50 (HL-60(TB) leukemia) [µM] | GI50 (MDA-MB-231 breast) [µM] | TGI (MDA-MB-231 breast) [µM] | GI50 (NCI-H226 lung) [µM] | GI50 (NCI-H23 lung) [µM] | GI50 (NCI-H460 lung) [µM] | GI50 (SF-295 CNS) [µM] | GI50 (SN12C renal) [µM] | GI50 (TK-10 renal) [µM] | GI50 (RPMI-8226 leukemia) [µM]
1 | CCCC/C=C/C1Cc2ccccc2CN1S(=O)(=O)c1ccc(C)cc1 (stereo not given) | > 100 | 25.8 | 16.4 | 31.3 | 5.72 | 35.6 | 23 | 61.3 |  |  |  |  |  |  |  |  |  |  |  | 
2 | O=S(O)CCCCCSSCCCCSSCCCCCS(=O)O |  |  | > 100 | > 100 | > 100 | > 100 | > 100 | > 100 |  |  |  |  |  |  |  |  |  |  |  | 
3 | Cn1c2c(c3ccccc31)C1CCCCC1C1C(=O)NC(=O)C21 (stereo not given) | 63.5 | > 100 | > 100 | > 100 | > 100 | > 100 | > 100 | > 100 |  |  |  |  |  |  |  |  |  |  |  | 
4 | CC1C[C@H](OC(N)=O)C(C)CC1=O (stereo not given in full) | > 100 |  | > 100 | > 100 | > 100 | > 100 | > 100 | > 100 |  |  |  |  |  |  |  |  |  |  |  | 
5 | C[C@]12CCC[C@H](Cl)C1(O)C[C@H](C(=O)O)CC2 (stereo not given in full) | > 100 | > 100 | > 100 | > 100 | > 100 | > 100 | > 100 | > 100 |  |  |  |  |  |  |  |  |  |  |  | 
6 | CC1=CC(=O)CCC2(C)C1CC[C@@H]2OC=O (stereo not given in full) | > 100 | > 100 | > 100 | > 100 | > 100 | > 100 | > 100 | > 100 |  |  |  |  |  |  |  |  |  |  |  | 
7 | COc1ccc2oc3c4c2c1CCC4CCC3=O (stereo not given) | > 100 |  | > 100 | > 100 | > 100 | > 100 | > 100 | > 100 |  |  |  |  |  |  |  |  |  |  |  | 
8 | C=C1C[C@](OC)([C@H](O)C(=O)N[C@@H](OC)[C@@H]2C[C@@H](O)C(C)(C)[C@@H](C[C@@H](COC)OC)O2)O[C@H](C)[C@@H]1C | > 1 | 0.00582 | 0.00544 | 0.00266 |  | 0.00181 | 0.00638 | 0.00388 | 0.00145 | 0.00496 | 0.00411 | 0.00286 | 0.00837 | 0.00202 | 0.00189 | 0.00072 | 0.000353 | 0.00174 | 0.00141 | 
9 | CSC(C1c2ccccc2N(C)C2=NC(=O)N(C)C(=O)C21Cl)S(=O)(=O)c1ccc(C)cc1 (stereo not given) | 39.7 | > 100 | 83.5 | > 100 | 57.8 | > 100 | > 100 | > 100 |  |  |  |  |  |  |  |  |  |  |  | 
10 | CN1C2(c3ccccc3)c3c(-c4ccccc4)sc(-c4ccccc4)c3C1(c1ccccc1)C1C(=O)N(c3ccccc3)C(=O)C12 (stereo not given) | > 100 | > 100 | > 100 | > 100 | > 100 | > 100 | > 100 | > 100 |  |  |  |  |  |  |  |  |  |  |  | 
11 | CC(C)c1ccccc1NC(=O)C(=O)Cc1nc2ccccc2s1 | > 100 | > 100 | > 100 | > 100 |  | > 100 | > 100 | > 100 |  |  |  |  |  |  |  |  |  |  |  | 
12 | Cc1ccc(C2NC(=S)NC3=C2CCOc2c3ccc3ccccc23)cc1 (stereo not given) | > 100 | > 100 | > 100 | > 100 |  |  | > 100 | > 100 |  |  | 5.86 | 26.3 | > 100 | > 100 | > 100 | 64.8 |  | > 100 | > 100 | 
13 | CC(=O)N1CC(Nc2ccc(OC(F)(F)F)cc2)=CC1=O | > 100 | 55.9 | > 100 | > 100 | > 100 | > 100 | > 100 | > 100 | 3.76 | > 100 | 0.842 |  |  | 3.98 | 4.93 | 0.696 | 2.86 | 7.95 | 5.85 | 2.67
14 | COc1ccc(-c2ccc(/C=N/n3c(COc4ccccc4Cl)nn(CN4CCN(C)CC4)c3=S)o2)c([N+](=O)[O-])c1 | 65.7 | 43.5 | 31 | 37.6 |  |  | 35.2 | 45.4 |  |  | 32.8 | 14.6 | 37.5 | 15.6 | 16.3 | 14.7 |  | 17.9 | 12.9 | 
15 | CCOC(=O)C(=O)Nc1ccc(C)cc1C | > 100 | > 100 | > 100 | > 100 | > 100 | > 100 | > 100 | > 100 |  |  |  |  |  |  |  |  |  |  |  | 
16 | CC(=O)C1CC=C(C)CC1 (stereo not given) | > 100 | > 100 | > 100 | > 100 | > 100 | > 100 | > 100 | > 100 |  |  |  |  |  |  |  |  |  |  |  | 
